# Data from article PMC3558798 (British Journal of Clinical Pharmacology, 2012).
# Like-named read-outs stand apart in the source and are kept apart here.
# Key:
# [1] = Food effect study: safety assessments; format: in vivo, human
# [2] = oral; cited from earlier work
# [3] = test system: thromboembolic events; settings: patients who had received total knee or hip replacement surgery; cited from earlier work
# [4] = test system: modified prothrombin time (mPT); experiment: Single ascending-dose study: modified prothrombin time; format: in vivo, human
# [5] = test system: activated partial thromboplastin time (aPTT); experiment: Single ascending-dose study: aPTT; format: in vivo, human
# [6] = Single ascending-dose study: safety assessments; format: in vivo, human
# [7] = Single ascending-dose study: template bleeding time; format: in vivo, human; settings: between pre-dose and 3.5 h post-dose
# [8] = test system: activated partial thromboplastin time (aPTT); experiment: Food effect study: aPTT; format: in vivo, human; settings: 3 h after 10 mg oral tablet
# [9] = test system: prothrombin time (PT); experiment: Food effect study: PT; format: in vivo, human; settings: 3 h after 10 mg oral tablet
# [10] = test system: international normalized ratio (INR); experiment: Food effect study: INR; format: in vivo, human; settings: for INR Mean (SD) change from baseline: 3 h after 10 mg oral tablet
# [11] = clinical; settings: human, plasma; for half-life: oral; for AUC(0-inf) / AUC(0-t) / Cmax / Tmax: po; for Tmax: Median tmax, range over doses
# [12] = clinical; settings: human, plasma, oral, 10 mg; for AUC(0-t): AUC(0,t) Adjusted geometric mean; for AUC(0-inf): AUC(0,∞) Adjusted geometric mean; for Cmax: Cmax Adjusted geometric mean
# [13] = test system: international normalized ratio (INR); experiment: Single ascending-dose study: INR; format: in vivo, human; settings: for mean maximum INR: 0–24 h post-dose
# [14] = test system: venous thrombosis; settings: at doses that preserved haemostasis; cited from earlier work
# [15] = 10 mg, high fat, high calorie meal vs fasted
# [16] = high calorie, high fat breakfast; cited from earlier work
# [17] = cited from earlier work
# [18] = single 10 mg dose following standard high calorie, high fat meal
# [19] = single 20 mg dose following a similar meal
smiles,measurement,setting,value
"COc1ccc(-n2nc(C(N)=O)c3c2C(=O)N(c2ccc(N4CCCCC4=O)cc2)CC3)cc1 [apixaban, 1-(4-methoxyphenyl)-7-oxo-6-(4-(2-oxopiperidin-1-yl)phenyl)-4,5,6,7-tetrahydro-1H -pyrazolo[3,4-c]pyridine-3-carboxamide]",elevated alanine transaminase level,"[1]; one subject, discontinued, 10 mg",3 × upper limit of normal [ULN]
same,elevations in aspartate aminotransferase and gamma-glutamyl transferase levels,"[1]; same one subject, 10 mg",< 2 × ULN
same,bleeding-related AEs,[1]; single 10 mg doses,no bleeding-related AEs
same,serious AEs or major bleeding-related events,"[1]; single 10 mg doses, fed and fasted",no serious AEs or major bleeding-related events
same,bioavailability,[2],~50%
same,prevention of thromboembolic events vs enoxaparin 40 mg daily,[3],superior to enoxaparin
same,mean % change from baseline in maximum mPT,[4]; 2.5 mg dose,35.0%
same,mean % change from baseline in maximum mPT,[4]; 5 mg dose,42.9%
same,mean % change from baseline in maximum mPT,[4]; 10 mg dose,87.1%
same,mean % change from baseline in maximum mPT,[4]; 25 mg dose,135.3%
same,mean % change from baseline in maximum mPT,[4]; 50 mg dose,187.1%
same,peak mPT increase from baseline,[4]; after a 50 mg dose,2.9 fold
same,mean % change from baseline in maximum aPTT,[5]; 25 mg dose,25.7%
same,mean maximum aPTT,"[5]; 25 mg dose, baseline 30.4 s",38.2 s
same,mean % change from baseline in maximum aPTT,[5]; 50 mg dose,23.1%
same,mean maximum aPTT,"[5]; 50 mg dose, baseline 28.6 s",35.1 s
same,peak aPTT increase from baseline,[5]; after a 50 mg dose,1.2 fold
same,subjects with bleeding-related AEs,"[6]; haematochezia at 25 mg (one), haematuria at 50 mg (two), all mild",Three subjects had bleeding-related AEs
same,serious AEs or major bleeding-related events,[6]; single oral doses 0.5–50 mg,no serious AEs or major bleeding-related events
same,dose-limiting AEs,[6]; single oral doses of up to 50 mg,No dose-limiting AEs were observed
same,"dose proportionality of Cmax, AUC(0,∞) and AUC(0,t)",0.5–50 mg,increased approximately proportionally to dose
same,"Inter-subject variability, %CV for Cmax and AUC","across all doses, regardless of formulation",approximately 30%
same,change in template bleeding time,[7],≤ 1 min
same,aPTT Mean (SD),"[8]; fasted, n = 23",32.96 (3.59)
same,aPTT Mean (SD) change from baseline,"[8]; fasted, n = 23",3.05 (2.59)
same,aPTT Mean (SD),"[8]; fed, n = 22",31.55 (3.02)
same,aPTT Mean (SD) change from baseline,"[8]; fed, n = 22",2.90 (2.21)
same,PT Mean (SD),"[9]; fasted, n = 23",14.99 (1.24)
same,PT Mean (SD) change from baseline,"[9]; fasted, n = 23",1.39 (0.89)
same,PT Mean (SD),"[9]; fed, n = 22",14.66 (0.97)
same,PT Mean (SD) change from baseline,"[9]; fed, n = 22",1.30 (0.85)
same,individual INR (highest),"[10]; 10 mg, fed and fasted",≤ 2.0
same,"time for INR, aPTT and PT to return to baseline","[10]; 10 mg, fed and fasted",≤ 24 h
same,INR Mean (SD) change from baseline,"[10]; fasted, n = 23",0.23 (0.13)
same,INR Mean (SD) change from baseline,"[10]; fed, n = 22",0.20 (0.12)
same,half-life,"[11]; 10 mg, half-life, single doses, overall conclusion",~12 h
same,half-life,"[11]; t1/2, range, doses that provided sufficient data to characterize the terminal elimination phase (i.e. 5–50 mg)",7 to 27 h
same,AUC(0-inf),[11]; 0.5 mg,61.9 ng·h/mL
same,AUC(0-t),[11]; 0.5 mg,52.7 ng·h/mL
same,Cmax,[11]; 0.5 mg,9.1 ng/mL
same,AUC(0-inf),[11]; 1 mg,174 ng·h/mL
same,AUC(0-t),[11]; 1 mg,163 ng·h/mL
same,Cmax,[11]; 1 mg,23.5 ng/mL
same,AUC(0-inf),[11]; 2.5 mg,438 ng·h/mL
same,AUC(0-t),[11]; 2.5 mg,421 ng·h/mL
same,Cmax,[11]; 2.5 mg,52.5 ng/mL
same,AUC(0-inf),[11]; 5 mg,1020 ng·h/mL
same,AUC(0-t),[11]; 5 mg,977 ng·h/mL
same,Cmax,[11]; 5 mg,105 ng/mL
same,AUC(0-inf),[11]; 10 mg,1300 ng·h/mL
same,AUC(0-t),[11]; 10 mg,1270 ng·h/mL
same,Cmax,[11]; 10 mg,176 ng/mL
same,AUC(0-inf),[11]; 25 mg,4010 ng·h/mL
same,AUC(0-t),[11]; 25 mg,3870 ng·h/mL
same,Cmax,[11]; 25 mg,365 ng/mL
same,AUC(0-inf),[11]; 50 mg,7560 ng·h/mL
same,AUC(0-t),[11]; 50 mg,7100 ng·h/mL
same,Cmax,[11]; 50 mg,685 ng/mL
same,Tmax,[11]; oral solution (0.5–2.5 mg),1.5 to 1.8 h
same,Tmax,[11]; oral tablet (5–50 mg),2.5 to 3.3 h
same,AUC(0-t),[12]; 10 mg fasted,1730 ng·h/mL
same,AUC(0-t),[12]; 10 mg fed,1810 ng·h/mL
same,AUC(0-inf),[12]; 10 mg fasted,1790 ng·h/mL
same,AUC(0-inf),[12]; 10 mg fed,1870 ng·h/mL
same,Cmax,[12]; 10 mg fasted,151 ng/mL
same,Cmax,[12]; 10 mg fed,165 ng/mL
same,half-life,"[12]; half-life, food effect study",~11.5 h
same,mean % change from baseline in maximum INR,[13]; 10 mg dose,19.5%
same,mean % change from baseline in maximum INR,[13]; 25 mg dose,44.1%
same,mean maximum INR,[13]; 25 mg dose,1.45
same,mean % change from baseline in maximum INR,[13]; 50 mg dose,55.8%
same,mean maximum INR,[13]; 50 mg dose,1.71
same,peak INR increase from baseline,[13]; after a 50 mg dose,1.6 fold
same,time until changes in pharmacodynamic parameters were evident,"[13]; following a single dose, clotting assay parameters (INR, aPTT and mPT)",less than 1 h
same,antithrombotic effects,[14],potent antithrombotic effects
same,increase in median tmax with food,[15],1 h
[H]/N=C(/N)c1ccc(NCc2nc3cc(C(=O)N(CCC(=O)O)c4ccccn4)ccc3n2C)cc1 [dabigatran],effect of food on extent of absorption,[16],did not affect the extent of absorption
O=C(NC[C@H]1CN(c2ccc(N3CCOCC3=O)cc2)C(=O)O1)c1ccc(Cl)s1 [rivaroxaban],"increase in AUC(0,∞) with food",[17]; [18],28%
same,increase in Cmax with food,[17]; [18],41%
same,"increase in AUC(0,∞) with food",[17]; [19],23%
same,increase in Cmax with food,[17]; [19],74%
